In patent US20060089390A1, “3-benzoyl-2,4,5-substituted pyridine derivatives or salts thereof and bactericides containing the same” (Ishihara Sangyo Kaisha, Ltd., priority 2002, published 2006) one finds melting point and pest or weed control data, which are given here for 5 molecules.

In data set [1] the test system is cucumber powdery mildew. The data set is described as follows: Test on preventive effect against cucumber powdery mildew. It is filed as in vivo, Cucumber (cultivar: Suyo). As to conditions: Cucumis sativus, foliar spray before inoculation, examined 6 to 11 days after inoculation, read-out: controlling effects as compared with non-treated cases (area of sporogony). The procedure:
Test on Preventive Effect Against Cucumber Powdery Mildew Cucumber (cultivar: […] After the drug solution dried, the cucumber was sprayed and inoculated with a conidiospore suspension of fungi of powdery mildew, and the cucumber was kept in a thermostatic chamber at 20° C. From 6 to 11 days after the inoculation, the area of sporogony was examined.

Data set [2] has as its system wheat powdery mildew. The experiment in a line: Test on preventive effect against wheat powdery mildew. It counts as in vivo, Wheat (cultivar: Norin-61-go). As to conditions: Triticum aestivum, foliar spray before inoculation, examined 6 to 8 days after inoculation, read-out: controlling effects as compared with non-treated cases (area of sporogony). As for the experimental part: Tests on Preventive Effect Against Wheat Powdery Mildew Wheat (cultivar: […] After the drug solution dried, the wheat was inoculated by spreading with conidiospore of fungi of powdery mildew, and the wheat was kept in a thermostatic chamber at 20° C. From 6 to 8 days after the inoculation, the area of sporogony was examined.

Data set [3] concerns rice blast. The data set is described as follows: whole plant or invertebrate. The settings on record: Pyricularia oryzae, foliar, read-out: controlling effects as compared with non-treated cases (number of lesions). It counts as in vivo, Rice (cultivar: Nihonbare).
In data set [4] the test system is cucumber powdery mildew. The data set is described as follows: Test on rainfastness of effect against cucumber powdery mildew. The settings on record: Cucumis sativus, topical, 500 gai/ha. It is filed as in vivo, Cucumber (cultivar: Suyo). As for the experimental part: Cucumber (cultivar: […] A day after the treatment, 10 mm/hr of artificial rainfall was applied for 1 hour. Together with seedlings not subjected to rainfall treatment (preventive), the cucumber was sprayed and inoculated with a conidiospore suspension of fungi of powdery mildew, and the cucumber was kept in a thermostatic chamber at 20° C. From 6 to 11 days after the inoculation, the number of lesions was examined, and the controlling rate was calculated by comparison with the non-treated cases. The results are shown in Table 5.

The mark [5] stands for this setting: 10 mm/hr artificial rainfall for 1 hour a day after treatment, read-out: Controlling rate of cucumber powdery mildew (%) Rainfall.
Where [6] appears, read: no rainfall treatment (preventive), read-out: Controlling rate of cucumber powdery mildew (%) Preventive.

Like-named read-outs stand apart in the source and are kept apart here.

For `COc1cc(C)c(C(=O)c2c(OC)ncc(Cl)c2OC)c(OC)c1OC` [1-11, 3-(2,3,4-trimethoxy-6-methylbenzoyl)-5-chloro-2,4-dimethoxypyridine], the melting point (commonly the temperature of the solid-liquid transition) is 93 to 94 °C. Also, the pest or weed control at 125 ppm in data set [1] was ≥ 90%. Also, the pest or weed control at 125 ppm in data set [2] was ≥ 90%.
On to `COc1cc(C)c(C(=O)c2c(Cl)ncc(C)c2Cl)c(OC)c1OC` [1-16, 3-(2,3,4-trimethoxy-6-methylbenzoyl)-2,4-dichloro-5-methylpyridine], for which the melting point lay within 78 to 80 °C. In addition, the pest or weed control at 125 ppm in data set [1] was ≥ 90%. In data set [3], the pest or weed control at 500 ppm is ≥ 90%. For the same molecule, the pest or weed control at 125 ppm in data set [2] is ≥ 90%.
For `COc1cc(C)c(C(=O)c2c(OC)ncc(C)c2C)c(OC)c1OC` [1-20, 3-(2,3,4-trimethoxy-6-methylbenzoyl)-2-methoxy-4,5-dimethylpyridine], the melting point was 84 to 86 °C. In data set [2], the pest or weed control at 125 ppm was ≥ 90%.
For the molecule `COc1cc(C)c(C(=O)c2c(OC)ncc(Cl)c2Br)c(OC)c1OC` [Compound No. 1-1, 3-(2,3,4-trimethoxy-6-methylbenzoyl)-4-bromo-5-chloro-2-methoxypyridine], the melting point was 92 to 94 °C. Also, the pest or weed control at 500 g/ha in data set [4] (setting [5]) was found to be 100%. In data set [4] (setting [6]), the pest or weed control at 500 g/ha was found to be 100%. In addition, the pest or weed control at 125 ppm in data set [1] was ≥ 90%. In data set [3], the pest or weed control at 500 ppm is ≥ 90%. Moreover, the pest or weed control at 125 ppm in data set [2] is ≥ 90%.
In turn, `COc1cc(C)c(C(=O)c2c(OC)ncc(Cl)c2Cl)c(OC)c1OC` [Compound No. 1-15, 3-(2,3,4-trimethoxy-6-methylbenzoyl)-4,5-dichloro-2-methoxypyridine] came in with a melting point of 84 to 86 °C. Further, the pest or weed control at 500 g/ha in data set [4] (setting [5]) was 100%. Moreover, the pest or weed control at 500 g/ha in data set [4] (setting [6]) is 100%. In addition, in data set [1], the pest or weed control at 125 ppm is ≥ 90%. Moreover, in data set [3], the pest or weed control at 500 ppm is ≥ 90%. The pest or weed control at 125 ppm in data set [2] was ≥ 90%.
